Experimental data from a melting point compilation (Tetko et al.; mined from patent text by program, amines drawn as free bases though some values may be those of a salt).

| Compound | melting point [°C] |
| --- | --- |
| COc1ccc(N2CCN(c3c(C)c4c(c(OC)c3C)OC(C)C4)CC2)cc1C (stereo not drawn) | 94 to 96 |
| N#Cc1ccc(C(=C2CCCCC2)c2nc[nH]n2)cc1 | 92 to 93 |
| CC1CC2CCC=C3C=C(Cl)NCC1=C32 (stereo not drawn) | 279 to 281 |
| COc1ccc(-c2ccc(C=O)c(Cl)c2)cc1F | 116 to 118 |
| COc1cc(C)ccc1-c1nc(C)c(-c2cccnc2)[nH]1 | 125 to 128 |
| CC(C)(NC(=O)c1cc2c(n(CC3CCCCC3)c1=O)CCCCCC2)C(=O)O[C@H]1CO[C@H](c2ccccc2)OC1 | 166 to 168 |
| CN1C2CCC1C(CO)C(c1ccc(I)cc1)C2 (stereo not drawn) | 90 to 92 |
| OCC1CCC(O)C1O (stereo not drawn) | 157 to 159 |
| CN1CC(=O)Nc2cccc(Cl)c2C1=O | 230 to 232 |
| CCCOc1cc2c(cc1OC)C(c1ccc(OC)c(OC)c1)=NN=C(C)C2CC (stereo not drawn) | 110 to 112 |
| CCN(CC)C(=O)CN1C(=O)C(NC(=O)Nc2cccc(OC)c2)N=C(c2ccccc2)c2ccccc21 (stereo not drawn) | 222 to 224 |
| CNC(=O)N(c1ccccc1)c1ccccc1 | 170 |
| O=C1c2ccccc2NC(c2ccc(=O)[nH]c2)N1c1ccc(F)c(C(F)(F)F)c1 (stereo not drawn) | 260 to 261 |
| O=C(O)[C@@H]1CCCC[C@H]1C(=O)CCS (relative stereo) | 71 to 74 |
| Nc1nccn2c(C3CCC3)nc(-c3cccc(OCc4ccccc4)c3F)c12 | 88 to 89 |
| O=[N+]([O-])C1(Cl)C=CC(S(=O)c2ccc(Br)cc2)=CC1 (stereo not drawn) | 138 to 140 |
| COc1cc2c(cc1N1CCN(CC3=CC4=CCSC4=C3)CC1)OCC2 | 186 to 190 |
| CCOC(=O)c1ccc(C(=O)Nc2ccc3c(c2)CCCC(=O)N3C)cc1 | 184 to 185 |
| CN([C@H]1CC[C@H](Nc2nccc(-n3nnc4ccccc43)n2)CC1)S(C)(=O)=O | 250 to 252 |
| CCN(C(C)=O)c1cc([N+](=O)[O-])cc([N+](=O)[O-])c1 | 98 to 100 |
| COC(=O)COc1cccc2c1S[C@@H](c1ccc(OC)cc1)[C@@H](O)C(=O)N2CCN(C)C (racemic) | 152 to 160 |
| COc1ccc(-c2c(Cl)c(CN3C(=O)CCC3=O)nc3sc4c(c23)CCC(O)C4)cc1 (stereo not drawn) | 218 to 220 |
| CCCCCCCC/C=C\CCCCCCCC(=O)N[C@H]1CCCNC(=O)C1 | 66 to 67 |
| Cc1c(NC(=O)c2ccc(CC(=O)C(C)C)cc2)ccc2cc(CN3CCCC3)cnc12 | 146 to 147 |
| COc1ccc(C2Cc3cc(C(F)(F)F)ccc3NC(=O)C2CSC)cc1 (stereo not drawn) | 224 to 226 |
| CC(C)(C)OC(=O)N1CCc2c(oc3cc(S(=O)(=O)c4cccc(F)c4)ccc23)C1(C)C | 58 to 60 |

| Compound | melting point [°C] |
| --- | --- |
| CC1Cc2cccc(Cl)c2C1=O (stereo not drawn) | 42 to 43 |
| O=c1[nH]c(=O)n(Cc2cccc(OCc3noc(-c4ccc(F)cc4)n3)c2)o1 | 147 to 148 |
| Cc1ncc2c(c1-c1nnn[nH]1)COc1ccccc1C2=O | 180 to 182 |
| CC(=Cc1ccc(F)cc1)COc1cc(C)c(NC=O)c(C)c1C | 164 to 165 |
| CCn1c2ccccc2c2cc(NC(=O)c3c(C)cccc3C)ccc21 | 192 to 193 |
| CC(C)(C)OC(=O)N1CCN(c2cccc3ccc(-n4nnc5ncccc54)cc23)CC1 | 173 to 175 |
| Cc1ccc(C2OC(=O)NC2=O)s1 (stereo not drawn) | 108 to 109 |
| CC(C)(C)c1cc(C(=O)Nc2ccc([N+](=O)[O-])cc2)cc(C(C)(C)C)c1O | 277 to 278 |
| CC12CCC3C(CCC4=CC(=CF)CCC43CS)C1CCC2=O (stereo not drawn) | 118 to 120 |
| N=C(N)Nc1nc2ccccc2n1Cc1ccccc1 | 167 |
| CCOC(=O)c1c(C(F)F)nc(C(F)(F)F)c(C(=O)OCC)c1NC(C)(C)C | 30 to 31 |
| O=[N+]([O-])c1ccccc1Nc1ccc(Nc2nccs2)cc1 | 195 to 197 |
| COc1ccc(/C=N/N2CCCCC2)cc1OC1CCCC1 | 81 to 82 |
| CC(=O)NC1(c2ccc(CN3CCN(c4ccccc4)CC3)cc2)CC1 | 129 to 140 |
| COc1cccc(/C=C/c2nc3c(c(=O)n(C)c(=O)n3C)n2C)c1OC | 234 to 237 |
| FC(F)(F)c1cccc(CSc2nnc(-c3ccn4ncnc4c3)o2)c1 | 147 to 148 |
| COC(=O)c1ccc2oc3c(c(=O)c2c1)CCC3=Cc1ccccn1 | 250 to 252 |
| Nc1cc(OCCCl)ccc1F | 42 to 43 |
| CCC1(CCCCN2CCN(c3ccccn3)CC2)C(=O)Nc2c(Cl)cc(Cl)cc21 (stereo not drawn) | 144 to 146 |
| c1ccc(CN2CCc3[nH]c4cc(-c5ccccc5)ccc4c3CC2)cc1 | 176 to 177 |
| CNC(=O)c1cc2ccc(OC)cc2n1CCNC(C)=O | 177 to 178 |
| O=c1c2c(nc3c(OCc4ccccc4)cccn13)CCC2 | 150 to 152 |
| O=C1NCSc2ccsc21 | 136 to 138 |
| O=[N+]([O-])c1cccc(S(=O)(=O)C(CCl)Sc2ccccc2)c1 (stereo not drawn) | 126 |
| Cc1c(CC(=O)O)c2cc(OCc3nc4ccccc4s3)ccc2n1Cc1ccc(Cl)cc1 | 175 to 176 |
| COc1ccc(Cn2cc(C(=O)C(=O)NC3=CC(=O)OC3)c3ccccc32)cc1 | 265 to 267 |

| Compound | melting point [°C] |
| --- | --- |
| COc1ccc(Cn2c(=O)c(NN)nc3ccc4ccccc4c32)c(OC)c1 | 182 to 183 |
| NC(=O)c1cc(OCCCCNCc2ccccc2)ccc1O | 78 to 81 |
| CCc1c(C(=O)O)nn(-c2ccc(Cl)cc2Cl)c1-c1ccc(Cl)cc1 | 215 |
| CCCc1cc2cc(OC)ccc2[nH]1 | 49 to 50 |
| COc1cc2c(cc1O)C(O)CN(Cc1cc(OC)c(OC)c(OC)c1)C2 (stereo not drawn) | 62 to 63 |
| CNC(=O)c1cc2c(Oc3ccc(OC(F)(F)F)cc3)cncc2s1 | 132 to 133 |
| O=[N+]([O-])c1ccc(/C=C/c2ccc(O)cc2)cc1 | 210 |
| CC(=O)c1sc(=O)[nH]c1C | 208 to 211 |
| CCCCCCc1cc2c(cc1C(=O)O)CCCCC2(C)C | 74 to 75 |
| CN(C(=O)Oc1ccc([N+](=O)[O-])cc1)c1ccc(-c2ncn(-c3ccc(OC(F)(F)F)cc3)n2)cc1 | 145 to 147 |
| CC(CO)NC(=O)c1cnc(N2CCC(N3C(=O)OCc4ccccc43)CC2)c(Cl)c1 (stereo not drawn) | 125 to 128 |
| COc1nc(C)nc(NC(=NS(=O)(=O)c2cccnc2)SC)n1 | 146 to 149 |
| Cc1c(Cl)c(Oc2ccc(C(F)(F)F)cc2[N+](=O)[O-])nn1C(=O)NC(C)C | 89 to 91 |
| COC(=O)c1ccc(C(=O)C=CN(C)C)cc1Cl | 92 to 96 |
| CCOC(=O)C(C#N)=Cc1ccc(OC)c2c1CC(C)(C)O2 | 112 to 117 |
| COC(C)=CC(=O)Nc1cccc(OC(C)=O)c1 | 111 |
| COC(=O)c1cc(NC(=O)C2CCCCC2)c2cc(Cc3ccc(F)cc3)cnc2c1O | 250 to 251 |
| COc1cnc(CO)cc1OC1CCCC1 | 93 to 94.5 |
| COc1ccc(OC(=O)N2c3cc(Cl)ccc3NC(=O)[C@@H]2C)cc1 | 187 to 190 |
| CCN1c2ncc(CCc3ccncc3)cc2C(=O)N(C)c2ccc(N)nc21 | 94 to 97 |
| Fc1c(F)c(F)c(C(Cl)=NNc2ccccc2)c(F)c1F | 117 to 118 |
| COc1ccc(-c2ccc(C#N)cn2)cc1C=O | 197 to 198 |
| Cc1cccnc1C(=O)NC(C)(C)C | 56 to 58 |
| Cc1cccc2c1CCNC2=O | 141 to 143 |
| O=C(c1ccoc1)c1ccc2[nH]c(=O)cc(-c3cccc(Cl)c3)c2c1 | > 250 |
| N#CC1=C(c2ccccc2)Nc2ccccc2S1=O (stereo not drawn) | 182 to 184 |

| Compound | melting point [°C] |
| --- | --- |
| CCOC(=O)C1=C(COCc2nc(CCN)cs2)NC(C)=C(C(=O)OC)C1c1cccc(Cl)c1Cl (stereo not drawn) | 110 to 112 |
| O=C(NC(=O)c1c(F)cccc1F)Nc1cc(Br)c(F)c(Cl)c1F | 225 to 227 |
| COCCc1nc2c(N)nc3ccccc3c2n1CCCCCCCCNC(=O)Nc1ccccc1 | 136 to 142 |
| CC(=O)Nc1nc(C)c(S(=O)(=O)NC(CO)CO)s1 | 217 |
| Cc1cc(NC(=O)CCc2cccs2)cc(C)c1O | 158 to 159 |
| Cc1cccc(COc2cccc(OCc3ccc4cc(F)ccc4n3)c2)c1C(=O)O | 153 to 154 |
| CN(C)CCNc1nc(C(=O)Nc2nc3ccc(C#N)cc3s2)cs1 | 201 to 203 |
| COc1c(O)c(CN2CCN(C)CC2)c(O)c2c(=O)cc(-c3ccccc3)oc12 | 179 |
| C=CC(=O)OCCCCCCCCCCCOc1ccc(O)cc1 | 72 to 74 |
| C=C(C)C[C@H]1CC(C)=CCN1c1ccccc1 | 55 to 57 |
| Cc1c(I)c(=O)n(C)c(=O)n1C | 155 to 157 |
| C=C(C)CO[C@H]1[C@H](C)OC(=O)[C@@H](NC(=O)c2nccc(OC)c2OCOC(C)=O)COC(=O)[C@@H]1Cc1ccccc1 | 102 to 104 |
| Cc1ccc(N[C@H](Cc2c[nH]c3ccccc23)C(=O)O)cc1 | 146 to 148 |
| Cc1c(N)c(C)c(Cc2ccc(C(C)C)cc2)c2c1CCO2 | 114 to 115 |
| CN1C(=O)C(NC(=O)CCC2CCCCC2)N=C(c2ccccc2)c2ccsc21 (stereo not drawn) | 189 to 190 |
| CS(=O)(=O)c1ccc(-c2cnn(Cc3ccc(F)cc3)c(=O)c2-c2ccc(F)cc2)cc1 | 153 to 154 |
| O=C(c1ccccc1)c1noc(CS(=O)c2ccccc2)n1 (stereo not drawn) | 79 to 81 |
| CCC(C)(C)Nc1c(NCc2cccc(C)c2C)c(=O)c1=O | 196 to 198 |
| CC(C)c1cc2sccc2c2c3c([nH]c12)CCNC3 | 197 to 199 |
| CN1OCCN(c2ccc([N+](=O)[O-])c(C(F)(F)F)c2)C1=O | 104 to 105 |
| COC(=O)/C(=C/c1cccc([N+](=O)[O-])c1)CC(=O)O | 160 to 161 |
| CC(C)Cn1c(CNC(=O)OC(C)(C)C)c(-c2ccc(F)cc2)c2cc(/C=C/C(=O)O)ccc2c1=O | 201 to 202 |
| Cc1ccccc1-c1cc(F)c2c(c1)CC(CN)O2 (stereo not drawn) | > 250 |
| COc1ccnc(CCc2nc3cc(-c4ccc(S(=O)(=O)N5CCOCC5)cc4)cnc3[nH]2)c1 | 210 to 212 |
| NNC(=O)c1ccc(OCc2cccc(Br)c2)cc1O | 201 to 203 |
